Patent US8877946B2, “Benzylidene-indolinone compounds and their medical use” (National University of Singapore, priority 2011, dated 2014)

Test system: HuH7 cells
Test: MTT antiproliferative (growth inhibition) assay on HuH7 cells
Assay type: cell-based, human
Details: Homo sapiens, Huh-7, MTT, 72 h incubation, mean and SD of 3 or more independent determinations (Tables 1-8), read-out: IC 50
Description: MTT was purchased from DUCHEFA Biochemie ([…]). Sunitinib, and sodium dodecyl sulfate, bovine serum albuminwere obtained from Sigma Aldrich (Singapore). Sorafenib was purchase from Ontario Chem. Fetal bovine serum (FBS) was obtained from Invitrogen. Human hepatocellular carcinoma cells (HuH-7 and Hep G2), and human diploid fibroblast strain (IMR 90). HuH7 was obtained as gifts from Dr Ho Han Kiat, Department of Pharmacy, NUS. IMR90 and Hep G2 were purchased from American Type Culture Collection (ATCC). HuH-7 cells were cultured in DMEM (Dulbecco's Modified Eagle Medium, high glucose) with 10% v/v fetal bovine serum (FBS), 100 mg/L penicillin G and 100 mg/L streptomycin. IMR 90 cell were cultured in EMEM (Eagle's Minimum Essential Medium), with 10% v/v FBS and 100 mg/L penicillin G and 100 mg/L streptomycin. The cells were sub-cultured when HuH7 or Hep G2 reached a density of 70-80×10^5 cell/T75 flask, and IMR 90 reached 20×10^5 cell/T75 flask. Cells were used within 2-10 passages for viability experiments.
The anti-proliferative activity of the test compounds were determined by the MTT assay. An aliquot (200 μL, 3×10^4 cells/mL for HuH7, 3.75×10^4 cells/mL for Hep G2, and 2×10^4 cells/mL for IMR 90) of medium was added to each well of the microtitre plate. […] The existing medium was removed from each well and replaced by fresh medium (200 μL) containing a known concentration of test compound. The final concentration of DMSO in each well was maintained at 0.5% v/v. (1% v/v was also utilized if the compounds were not soluble) The test compounds were incubated with the cells for another 72 h at 37 deg C., 5% CO2. The medium was then removed from the well and replaced with FBS free medium (200 μL) and MTT (50 μL of 2 mg/mL solution in phosphate buffer saline, pH 7.4). The phosphate buffer saline comprises 10 mM of potassium phosphate and 137 mM sodium chloride. After incubation (3 h) at 37 deg C., 5% CO2, the supernatant was removed and a solution of 200 μL DMSO and 25 μL Sorenson buffer (0.1 M glycine, 0.1 M sodium chloride, adjusted to pH 10.5 with 0.1 M sodium hydroxide) was added to dissolve the formazan crystals in each well. Vehicle control were cells grown in 1% v/v DMSO/Medium for 72 h, 37 deg C., 5% CO2 while blank controls were wells that contained only 200 μL DMSO and 25 μL Sorenson buffer. Absorbances were measured at 570 nm on a microplate reader (Tecan, Infinite 200). The viability of cells at a given concentration of test compound was determined from the expression:
[formula] where abs_compound=absorbance of wells containing cells and test compound, abs_vehicle (Not the same as above. Change to abs_vehicle)=absorbance of vehicle control and abs_blank=absorbance of blank control.
Each concentration of test compound was evaluated at least 3 times on separate occasions, and two different stock solution were used. The IC50 value (concentration that inhibited 50% of cell growth) was determined from the sigmoidal curve obtained by plotting percentage viability versus logarithmic concentration of test compound using GraphPad Prism 5 (San Diego, USA).

Structure (SMILES)	IC50 [µM]
O=C1Nc2cc(F)ccc2/C1=C\c1ccccc1C(F)(F)F [Compound 3-5, (E)-6-Fluoro-3-(2-trifluoromethyl-benzylidene)-1,3-dihydro-indol-2-one]	> 30
O=C1Nc2ccccc2/C1=C\c1cccc(C(F)(F)F)c1 [Compound 8-1, (E) 3-(3-Trifluoromethyl-benzylidene)-1,3-dihydro-indol-2-one]	5.56 ± 0.06
O=C1Nc2cc(Cl)ccc2C1=Cc1ccc(OC(F)(F)F)cc1 [Compound 1-15, (E)-6-Chloro-3-(4-trifluoromethoxyl-benzylidene)-1,3-dihydro-indol-20-one]	10.1 ± 1.73
O=C1Nc2ccc(F)cc2/C1=C\c1ccccc1 [Compound 4-1, (E)-3-Benzylidene-5-fluoro-1,3-dihydro-indol-2-one]	21.4 ± 1.73
O=C1Nc2ccc(Cl)cc2/C1=C\c1ccc(F)cc1 [Compound 2-4, (E)-5-Chloro-3-(4-fluoro-benzylidene)-1,3-dihydro-indol-2-one]	12.7 ± 2.82
O=C1Nc2ccc(F)c(F)c2/C1=C/c1cccc(OC(F)(F)F)c1 [Compound 6-8, (Z)-4,5-Difluoro-3-(3-trifluoromethoxyl-benzylidene)-1,3-dihydro-indol-2-one]	2.94 ± 0.26
CN(C)S(=O)(=O)c1cccc(/C=C2/C(=O)Nc3cc(Cl)ccc32)c1 [Compound 1-20, (E)-3-(6-Chloro-2-oxo-1,2-dihydro-indol-3-ylidenemethyl)-N,N-dimethyl-benzenesulfonamide]	4.87 ± 0.36
O=C1Nc2cc(Cl)ccc2/C1=C\c1ccc(C(F)(F)F)cc1 [Compound 1-11, (E)-6-Chloro-3-(4-trifluoromethyl-benzylidene)-1,3-dihydro-indol-2-one]	11 ± 1.78
NS(=O)(=O)c1cccc(/C=C2/C(=O)Nc3cc(Cl)ccc32)c1 [Compound 1-17, (E) 3-(6-Chloro-2-oxo-1,2-dihydro-indol-3-ylidenemethyl)-benzene-sulfonamide]	3.41 ± 0.38
COc1cccc(/C=C2/C(=O)Nc3ccc(F)cc32)c1 [Compound 4-8, (E)-5-Fluoro-3-(3-methoxy-benzylidene)-1,3-dihydro-indol-2-one]	16.4 ± 4.15
O=C1Nc2cc(Cl)ccc2C1=Nc1cccc(C(F)(F)F)c1 [Compound 8-4, (E/Z) 6-Chloro-3-(3-trifluoromethyl-phenylimino)-1,3-dihydro-indol-2-one]	20.1 ± 1.72
O=C1Nc2ccc(F)cc2C1=Nc1cccc(C(F)(F)F)c1 [Compound 8-7, (E/Z)-5-Fluoro-3-(3-trifluoromethyl-phenylimino)-1,3-dihydro-indol-2-one]	23.13 ± 0.21
COc1ccc2c(c1)NC(=O)/C2=C/c1cccc(F)c1 [Compound 5-3, (E)-3-(3-Fluoro-benzylidene)-6-methoxy-1,3-dihydro-indol-2-one]	0.71 ± 0.07
COc1ccc2c(c1)NC(=O)/C2=C/c1ccc(F)cc1 [Compound 5-4, (E)-3-(4-Fluorobenzylidene)-6-methoxy-1,3-dihydro-indol-2-one]	5.36 ± 0.14
O=C1Nc2ccc(F)cc2/C1=C\c1cccc(F)c1 [Compound 4-3, (E)-5-Fluoro-3-(3-fluoro-benzylidene)-1,3-dihydro-indol-2-one]	13.3 ± 2.31
N#Cc1cccc(/C=C2/C(=O)Nc3cc(Cl)ccc32)c1 [Compound 1-19, (E) 3-(6-Chloro-2-oxo-1,2-dihydro-indol-3-ylidenemethyl)-benzonitrile]	7.36 ± 0.3
CS(=O)(=O)c1cccc(/C=C2/C(=O)Nc3ccc(F)cc32)c1 [Compound 4-14, (E)-5-Fluoro-3-(3-methanesulfonyl-benzylidene)-1,3-dihydro-indol-2-one]	5.19 ± 0.63
CS(=O)(=O)c1cccc(C=C2C(=O)Nc3ccc(F)c(F)c32)c1 (mixture of isomers) [Compound 6-9, (E/Z)-4,5-Difluoro-3-(3-methanesulfonylbenzylidene)-1,3-dihydro-indol-2-one]	13.9 ± 2.03
CS(=O)(=O)c1cccc(/C=C2/C(=O)Nc3ccc(Cl)cc32)c1 [Compound 2-11, (E)-5-Chloro-3-(3-methanesulfonyl-benzylidene)-1,3-dihydro-indol-2-one]	6.53 ± 0.51

Structure (SMILES)	IC50 [µM]
O=C1Nc2ccc(F)c(F)c2/C1=C/c1ccccc1 [Compound 6-1, (Z)-3-Benzylidene-4,5-difluoro-1,3-dihydro-indol-2-one]	31.1 ± 2.12
COc1ccc(/C=C2/C(=O)Nc3cc(Cl)ccc32)cc1 [Compound 1-8, (E)-6-Chloro-3-(4-methoxy-benzylidene)-1,3-dihydro-indol-2-one]	> 30
N#Cc1cccc(/C=C2/C(=O)Nc3ccc(Cl)cc32)c1 [Compound 2-13, (E) 3-(5-Chloro-2-oxo-1,2-dihydro-indol-3-ylidenemethyl)-benzonitrile]	10.4 ± 1.99
CS(=O)(=O)c1cccc(/C=C2/C(=O)Nc3cc(F)ccc32)c1 [Compound 3-9, (E)-6-Fluoro-3-(3-methanesulfonyl-benzylidene)-1,3-dihydro-indol-2-one]	12.7 ± 1.54
O=C1Nc2cc(F)c(F)cc2/C1=C\c1ccc(C(F)(F)F)cc1 [Compound 7-7, (E)-5,6-Difluoro-3-(4-(trifluoromethyl)benzylidene)-1,3-dihydro-indol-2-one]	10.6 ± 0.68
O=C1Nc2ccc(Cl)cc2/C1=C\c1ccc(F)c(F)c1 [Compound 2-9, (E)-5-Chloro-3-(3,4-difluoro-benzylidene)-1,3-dihydro-indol-2-one]	11.4 ± 1.45
O=C1Nc2cc(F)c(F)cc2/C1=C\c1ccccc1F [Compound 7-2, (E)-5,6-Difluoro-3-(2-fluoro-benzylidene)-1,3-dihydro-indol-2-one]	> 30
O=C1Nc2ccc(F)cc2/C1=C\c1ccccc1F [Compound 4-2, (E)-5-Fluoro-3-(2-fluoro-benzylidene)-1,3-dihydro-indol-2-one]	> 30
O=C1Nc2cc(F)c(F)cc2/C1=C\c1cccc(F)c1 [Compound 7-3, (E)-5,6-Difluoro-3-(3-fluorobenzylidene)-1,3-dihydro-indol-2-one]	19.2 ± 3.25
O=C1Nc2ccccc2C1=Nc1cccc(C(F)(F)F)c1 [Compound 8-2, (E/Z) 3-(3-Trifluoromethyl-phenylimino)-1,3-dihydro-indol-2-one]	> 30
O=C1Nc2ccc(Cl)cc2/C1=C\c1cccc(F)c1 [Compound 2-3, (E)-5-Chloro-3-(3-fluoro-benzylidene)-1,3-dihydro-indol-2-one]	15.1 ± 2.91
CS(=O)(=O)c1cccc(/C=C2/C(=O)Nc3cc(Cl)ccc32)c1 [Compound 1-16, (E)-6-Chloro-3-(3-methanesulfonyl-benzylidene)-1,3-dihydro-indol-2-one]	10.8 ± 3.72
CS(=O)(=O)c1cccc(/C=C2/C(=O)Nc3cc(F)c(F)cc32)c1 [Compound 7-9, (E)-5,6-Difluoro-3-(3-methanesulfonylbenzylidene)-1,3-dihydro-indol-2-one]	13.9 ± 2.03
O=C1Nc2ccc(F)cc2/C1=C\c1ccccc1C(F)(F)F [Compound 4-9, (E)-5-Fluoro-3-(2-trifluoromethyl-benzylidene)-1,3-dihydro-indol-2-one]	> 30
O=C1Nc2cc(F)c(F)cc2/C1=C\c1cccc(OC(F)(F)F)c1 [Compound 7-8, (E)-5,6-Difluoro-3-(3-trifluoromethoxyl-benzylidene)-1,3-dihydro-indol-2-one]	5.61 ± 0.26
O=C1Nc2cc(F)c(F)cc2/C1=C\c1ccccc1 [Compound 7-1, (E)-3-Benzylidene-5,6-difluoro-1,3-dihydro-indol-2-one]	> 30
O=C1Nc2ccc(F)c(F)c2/C1=C/c1ccc(F)cc1 [Compound 6-4, (Z)-4,5-Difluoro-3-(4-fluoro-benzylidene)-1,3-dihydro-indol-2-one]	14 ± 0.73
O=C1Nc2ccc(Cl)cc2/C1=C\c1ccc(C(F)(F)F)cc1 [Compound 2-8, (E)-5-Chloro-3-(4-trifluoromethylbenzylidene)-1,3-dihydro-indol-2-one]	7.92 ± 1.45
CN1C(=O)/C(=C/c2cccc(C(F)(F)F)c2)c2ccccc21 [Compound 8-3, (E)-1-Methyl-3-(3-trifluoromethyl-benzylidene)-1,3-dihydro-indol-2-one]	6.74 ± 1.23
